# Measurements reported in patent US12162890B2 (Novartis AG, priority 2015, dated 2024).
# Molecular target: HEK293 cells with stable expression of the GRIN1 gene and tetracycline-inducible expression of the GRIN2B gene (NMDA receptor, NR2B) (Homo sapiens, UniProt Q13224)
# Assay: Fluo-8 Ca2+ flux assay: reversal of Ro 25-6981-mediated suppression of the Ca2+ response to co-agonist (glutamate/glycine); note: test concentration or dose not given here
# Format: cell-based
# Details: reversal of the Ro 25-6981 suppression of the Ca2+ response to co-agonist (glutamate/glycine)
# Sequence of HEK293 cells with stable expression of the GRIN1 gene and tetracycline-inducible expression of the GRIN2B gene (NMDA receptor, NR2B) (Q13224 27-1484, other chains not shown): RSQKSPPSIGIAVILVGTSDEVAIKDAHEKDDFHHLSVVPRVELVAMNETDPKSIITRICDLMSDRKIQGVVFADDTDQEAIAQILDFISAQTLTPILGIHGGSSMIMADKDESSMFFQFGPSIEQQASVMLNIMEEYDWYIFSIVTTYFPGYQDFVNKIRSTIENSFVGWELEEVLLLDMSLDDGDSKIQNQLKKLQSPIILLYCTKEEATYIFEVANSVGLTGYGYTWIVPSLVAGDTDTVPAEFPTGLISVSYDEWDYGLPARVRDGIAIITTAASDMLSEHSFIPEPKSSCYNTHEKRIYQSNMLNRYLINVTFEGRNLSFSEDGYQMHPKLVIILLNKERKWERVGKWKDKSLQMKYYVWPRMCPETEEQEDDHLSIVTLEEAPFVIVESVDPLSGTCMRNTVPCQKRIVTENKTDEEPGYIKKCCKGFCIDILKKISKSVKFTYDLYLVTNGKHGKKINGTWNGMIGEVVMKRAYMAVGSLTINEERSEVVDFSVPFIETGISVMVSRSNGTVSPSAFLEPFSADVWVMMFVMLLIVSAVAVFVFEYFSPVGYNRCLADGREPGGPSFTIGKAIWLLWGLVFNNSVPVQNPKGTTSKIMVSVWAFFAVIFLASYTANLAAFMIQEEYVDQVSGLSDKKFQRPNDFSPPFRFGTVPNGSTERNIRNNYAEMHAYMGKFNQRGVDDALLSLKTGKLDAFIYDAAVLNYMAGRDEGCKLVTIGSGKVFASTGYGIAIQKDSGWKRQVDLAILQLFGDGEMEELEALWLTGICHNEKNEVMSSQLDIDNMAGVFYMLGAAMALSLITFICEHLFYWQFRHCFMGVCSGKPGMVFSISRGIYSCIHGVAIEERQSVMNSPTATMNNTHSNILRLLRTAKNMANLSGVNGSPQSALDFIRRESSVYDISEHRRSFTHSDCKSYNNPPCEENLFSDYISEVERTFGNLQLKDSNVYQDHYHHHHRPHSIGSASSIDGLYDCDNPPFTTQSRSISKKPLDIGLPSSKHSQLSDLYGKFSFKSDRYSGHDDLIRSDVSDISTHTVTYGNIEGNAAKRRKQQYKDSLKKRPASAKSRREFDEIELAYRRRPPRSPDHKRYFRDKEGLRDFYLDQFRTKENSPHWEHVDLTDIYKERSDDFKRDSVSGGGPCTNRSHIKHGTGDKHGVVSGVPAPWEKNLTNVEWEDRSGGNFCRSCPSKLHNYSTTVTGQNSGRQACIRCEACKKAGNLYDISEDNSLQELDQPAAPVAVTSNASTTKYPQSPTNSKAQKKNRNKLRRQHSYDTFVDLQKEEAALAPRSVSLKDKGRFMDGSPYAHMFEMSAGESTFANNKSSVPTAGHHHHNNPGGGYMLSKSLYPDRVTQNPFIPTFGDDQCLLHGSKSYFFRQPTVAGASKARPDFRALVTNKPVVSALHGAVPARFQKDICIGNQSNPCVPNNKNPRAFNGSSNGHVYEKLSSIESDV
row,Response Recovered (%),Compound
1,3%,"O=C(CCn1ccc2scc(-c3ccc(Cl)c(C(F)(F)F)c3)c2c1=O)N1CCC(F)C1 (centres unmarked) [Example 24, 3-(4-chloro-3-(trifluoromethyl)phenyl)-5-(3-(3-fluoropyrrolidin-1-yl)-3-oxopropyl)thieno[3,2-c]pyridin-4(5H)-one]"
2,40%,"O=C(Cn1ccn2ncc(-c3ccc(F)c(C(F)(F)F)c3)c2c1=O)N1CCCC1 [Example 323, 3-(4-fluoro-3-(trifluoromethyl)phenyl)-5-(2-oxo-2-(pyrrolidin-1-yl)ethyl)pyrazolo[1,5-a]pyrazin-4(5H)-one]"
3,77%,"O=C(Cn1ccn2ccc(-c3ccc(F)c(C(F)(F)F)c3)c2c1=O)N1CCCC1 [Example 391, 8-(4-fluoro-3-(trifluoromethyl)phenyl)-2-(2-oxo-2-(pyrrolidin-1-yl)ethyl)pyrrolo[1,2-a]pyrazin-1(2H)-one]"
4,33%,"Cc1sc(-c2ccc(Cl)c(F)c2)c2c(=O)n(CC(=O)N3CCCC3)cnc12 [Example 369, 5-(4-chloro-3-fluorophenyl)-7-methyl-3-(2-oxo-2-(pyrrolidin-1-yl)ethyl)thieno[3,4-d]pyrimidin-4(3H)-one]"
5,102%,"O=C(Cn1ccc2scc(-c3ccc(Cl)c(Cl)c3)c2c1=O)N1CCC(F)C1 (centres unmarked) [Example 10, 3-(3,4-dichlorophenyl)-5-(2-(3-fluoropyrrolidin-1-yl)-2-oxoethyl)thieno[3,2-c]pyridin-4(5H)-one]"
6,15%,"O=C(Cn1ncc2scc(-c3ccc(F)c(Cl)c3)c2c1=O)N1CCC(F)C1 (centres unmarked) [Example 343, 3-(3-chloro-4-fluorophenyl)-5-(2-(3-fluoropyrrolidin-1-yl)-2-oxoethyl)theino[2,3-d]pyridazin-4(5H)-one]"
7,82%,"Cn1cc(-n2cc(-c3ccc(Cl)c(Cl)c3)c3c(=O)n(CC(=O)N4CCC(F)C4)ccc32)cn1 (centres unmarked) [Example 283, 3-(3,4-dichlorophenyl)-5-(2-(3-fluoropyrrolidin-1-yl)-2-oxoethyl)-1-(1-methyl-1H-pyrazol-4-yl)-1H-pyrrolo[3,2-c]pyridin-4(5H)-one]"
8,62%,"O=C(Cn1ccn2ccc(-c3ccc(Cl)c(Cl)c3)c2c1=O)N1CCCC1 [Example 394, 8-(3,4-dichlorophenyl)-2-(2-oxo-2-(pyrrolidin-1-yl)ethyl)pyrrolo[1,2-a]pyrazin-1(2H)-one]"
9,15%,"CCn1cc(-c2ccc(Cl)c(F)c2)c2c(=O)n(CC(=O)N3CC(F)(F)C3)cnc21 [Example 171, 5-(4-chloro-3-fluorophenyl)-3-(2-(3,3-difluoroazetidin-1-yl)-2-oxoethyl)-7-ethyl-3H-pyrrolo[2,3-d]pyrimidin-4(7H)-one]"
10,6%,"O=C(Cn1nnc2scc(-c3ccc(F)c(Cl)c3)c2c1=O)N1CCCC1 [Example 330, 5-(3-chloro-4-fluorophenyl)-3-(2-oxo-2-(pyrrolidin-1-yl)ethyl)thieno[2,3-d][1,2,3]triazin-4(3H)-one]"
11,19%,"O=C(Cn1ccn2c(C3CC3)nc(-c3ccc(F)c(Cl)c3)c2c1=O)N1CCC(F)C1 (centres unmarked) [Example 432, 1-(3-chloro-4-fluorophenyl)-3-cyclopropyl-7-(2-(3-fluoropyrrolidin-1-yl)-2-oxoethyl)imidazo[1,5-a]pyrazin-8(7H)-one]"
12,76%,"COCCn1cc(-c2ccc(Cl)c(C(F)(F)F)c2)c2c(=O)n(CC(=O)N3CCCC3)cnc21 [Example 185, 5-(4-chloro-3-(trifluoromethyl)phenyl)-7-(2-methoxyethyl)-3-(2-oxo-2-(pyrrolidin-1-yl)ethyl)-3H-pyrrolo[2,3-d]pyrimidin-4(7H)-one]"
13,140%,"O=C(Cn1ccc2scc(-c3ccc(Cl)c(Cl)c3)c2c1=O)N1CC(F)(CF)C1 [Example 82, 3-(3,4-dichlorophenyl)-5-(2-(3-fluoro-3-(fluoromethyl)azetidin-1-yl)-2-oxoethyl)thieno[3,2-c]pyridin-4(5H)-one]"
14,26%,"Cc1cn(CC(=O)N2CCC(F)C2)c(=O)n2c(-c3ccc(Cl)c(Cl)c3)cnc12 (centres unmarked) [Example 453, 3-(3,4-dichlorophenyl)-6-(2-(3-fluoropyrrolidin-1-yl)-2-oxoethyl)-8-methylimidazo[1,2-c]pyrimidin-5(6H)-one]"
15,58%,"CC1(F)CN(C(=O)Cn2ccn3ccc(-c4cnc(Cl)c(Cl)c4)c3c2=O)C1 [Example 404, 8-(5,6-dichloropyridin-3-yl)-2-(2-(3-fluoro-3-methylazetidin-1-yl)-2-oxoethyl)pyrrolo[1,2-a]pyrazin-1(2H)-one]"
16,61%,"CCOCn1cc(-c2ccc(F)c(C(F)(F)F)c2)c2c(=O)n(CC(=O)N3CCC(F)C3)ccc21 (centres unmarked) [Example 241, 1-(ethoxymethyl)-3-(4-fluoro-3-(trifluoromethyl)phenyl)-5-(2-(3-fluoropyrrolidin-1-yl)-2-oxoethyl)-1H-pyrrolo[3,2-c]pyridin-4(5H)-one]"
17,160%,"CC1(F)CN(C(=O)Cn2ccc3scc(-c4ccc(F)c(C(F)(F)F)c4)c3c2=O)C1 [Example 43, 3-(4-fluoro-3-(trifluoromethyl)phen-yl)-5-(2-(3-fluoro-3-methylazetidin-1-yl)-2-oxoethyl)thieno[3,2-c]pyridin-4(5H)-one]"
18,88%,"CCC1(F)CN(C(=O)Cn2ccc3c(c(-c4cnc(Cl)c(Cl)c4)cn3C3CC3)c2=O)C1 [Example 294, 1-cyclopropyl-3-(5,6-dichloropyridin-3-yl)-5-(2-(3-ethyl-3-fluoroazetidin-1-yl)-2-oxoethyl)-1,5-dihydro-4H-pyrrolo[3,2-c]pyridin-4-one]"
19,23%,"O=C(Cn1ncc2scc(-c3ccc(Cl)c(C(F)(F)F)c3)c2c1=O)N1CCCC1 [Example 335, 3-(4-chloro-3-(trifluoromethyl)phenyl)-5-(2-oxo-2-(pyrrolidin-1-yl)ethyl)thieno[2,3-d]pyridazin-4(5H)-one]"

# Second part, the compound before the results:
row,Compound,Response Recovered (%)
1,"C[Si](C)(C)CCOCn1cc(-c2ccc(Cl)c(C(F)(F)F)c2)c2c(=O)n(CC(=O)N3CC(F)(F)C3)ccc21 [Example 200, 3-(4-chloro-3-(trifluoromethyl)phenyl)-5-(2-(3,3-difluoroazetidin-1-yl)-2-oxoethyl)-1-((2-(trimethylsilyl)ethoxy)methyl)-1H-pyrrolo[3,2-c]pyridin-4(5H)-one]",18%
2,"O=C(Cn1cnc2c(c(-c3ccc(Cl)c(F)c3)cn2CCF)c1=O)N1CCCC1 [Example 173, 5-(4-chloro-3-fluorophenyl)-7-(2-fluoroethyl)-3-(2-oxo-2-(pyrrolidin-1-yl)ethyl)-3H-pyrrolo[2,3-d]pyrimidin-4(7H)-one]",32%
3,"CC1(F)CN(C(=O)Cn2ccc3[nH]cc(-c4ccc(F)c(C(F)(F)F)c4)c3c2=O)C1 [Example 222, 3-(4-fluoro-3-(trifluoromethyl)phenyl)-5-(2-(3-fluoro-3-methylazetidin-1-yl)-2-oxoethyl)-1H-pyrrolo[3,2-c]pyridin-4(5H)-one]",86%
4,"O=C(Cn1ccc2c(c(-c3ccc(F)c(C(F)(F)F)c3)cn2CCO)c1=O)N1CCC(F)C1 (centres unmarked) [Example 256, 3-(4-fluoro-3-(trifluoromethyl)phenyl)-5-(2-(3-fluoropyrrolidin-1-yl)-2-oxoethyl)-1-(2-hydroxyethyl)-1H-pyrrolo[3,2-c]pyridin-4(5H)-one]",54%
5,"CCn1cc(-c2ccc(Cl)c(Cl)c2)c2c(=O)n(CC(=O)N3CCC(F)C3)ccc21 (centres unmarked) [Example 272, 3-(3,4-dichlorophenyl)-1-ethyl-5-(2-(3-fluoropyrrolidin-1-yl)-2-oxoethyl)-1H-pyrrolo[3,2-c]pyridin-4(5H)-one]",33%
6,"O=C(Cn1ccn2ccc(-c3ccc(F)c(Cl)c3)c2c1=O)N1CCCC1 [Example 392, 8-(3-chloro-4-fluorophenyl)-2-(2-oxo-2-(pyrrolidin-1-yl)ethyl)pyrrolo[1,2-a]pyrazin-1(2H)-one]",118%
7,"O=C(Cn1ccc2c(c(-c3ccc(Cl)c(Cl)c3)cn2C2CC2)c1=O)N1CC(F)(CF)C1 [Example 293, 1-cyclopropyl-3-(3,4-dichlorophenyl)-5-(2-(3-fluoro-3-(fluoromethyl)azetidin-1-yl)-2-oxoethyl)-1,5-dihydro-4H-pyrrolo[3,2-c]pyridin-4-one]",160%
8,"CCn1cc(-c2ccc(Cl)c(C(F)(F)F)c2)c2c(=O)n(CC(=O)N3CCCC3)cnc21 [Example 157, 5-(4-chloro-3-(trifluoromethyl)phenyl)-7-ethyl-3-(2-oxo-2-(pyrrolidin-1-yl)ethyl)-3H-pyrrolo[2,3-d]pyrimidin-4(7H)-one]",70%
9,"O=C(Cn1ccc2scc(-c3ccc(F)c(Cl)c3)c2c1=O)N1CCC1 [Example 46, 5-(2-(azetidin-1-yl)-2-oxoethyl)-3-(3-chloro-4-fluorophenyl)thieno[3,2-c]pyridin-4(5H)-one]",26%
10,"O=C(Cn1ccc2ccc(-c3ccc(Cl)c(C(F)(F)F)c3)cc2c1=O)N1CCCC1 [Example 310, 7-(4-chloro-3-(trifluoromethyl)phenyl)-2-(2-oxo-2-(pyrrolidin-1-yl)ethyl)isoquinolin-1(2H)-one]",3%
11,"COCCn1cc(-c2ccc(Cl)c(F)c2)c2c(=O)n(CC(=O)N3CCCC3)cnc21 [Example 187, 5-(4-chloro-3-fluorophenyl)-7-(2-methoxyethyl)-3-(2-oxo-2-(pyrrolidin-1-yl)ethyl)-3H-pyrrolo[2,3-d]pyrimidin-4(7H)-one]",9%
12,"Cn1cc(-n2cc(-c3ccc(F)c(C(F)(F)F)c3)c3c(=O)n(CC(=O)N4CC(C)(F)C4)ccc32)cn1 [Example 236, 3-(4-fluoro-3-(trifluoromethyl)phenyl)-5-(2-(3-fluoro-3-methylazetidin-1-yl)-2-oxoethyl)-1-(1-methyl-1H-pyrazol-4-yl)-1H-pyrrolo[3,2-c]pyridin-4(5H)-one]",140%
13,"C[Si](C)(C)CCOCn1cc(-c2ccc(Cl)c(C(F)(F)F)c2)c2c(=O)n(CC(=O)N3CCC(F)C3)ccc21 (centres unmarked) [Example 199, 3-(4-chloro-3-(trifluoromethyl)phenyl)-5-(2-(3-fluoropyrrolidin-1-yl)-2-oxoethyl)-1-((2-(trimethylsilyl)ethoxy)methyl)-1H-pyrrolo[3,2-c]pyridin-4(5H)-one]",47%
